Test results reported in patent US20220380317A1, “COMPOUNDS HAVING ANTIMALARIAL ACTIVITY” (NANYANG TECHNOLOGICAL UNIVERSITY, priority 2019, published 2022).
Read-outs that look alike come from different tables or passages of the source.

Key:
P. falciparum = assay: in vitro P. falciparum growth inhibition / dose response assay (Hoechst 33342 FACS read out); assay type: cell-based, Plasmodium falciparum; settings: for IC50: in vitro, FIG. 7B, read-out: affinity (IC50 values, in vitro anti-parasitic activity)
Experimental: For the in vitro P. falciparum culture, P. falciparum 3D7, Dd2, K1, T994, W2, and W2mef cell lines were obtained from Malaria Research and Reference Reagent Resource Center (MR4), BEI Resources. Artemisinin-resistant and -sensitive parasite field isolates from Ratanakiri, Cambodia were obtained by request from the Tracking Resistance to Artemisinin Collaboration (TRAC). In vitro parasite culture was performed as described by Maier and Rug (Methods Mol Bio 2013; 923:3-15). Briefly, cultures were maintained with RPMI medium supplemented with Albumax II; […] RPMI-1640 (Gibco, Life Technologies), 2.5 g/L Albumax II (Gibco, Life Technologies), 2.3 g/L Sodium Bicarbonate (Sigma-Aldrich), 50 mg/L Hypoxanthine (Sigma-Aldrich), 10 mg/L Gentamicin Sulphate (Gibco, Life Technologies), in 2-3% haematocrit human RBCs collected via patient donation at National University Hospital, Singapore. Cultures were maintained with a special mixed gas of 3% O2, 5% CO2, balanced with N2 (SOXAL, Air Liquide, Singapore). For cultures grown in plate format, plates were kept in a sealed bag filled with mixed gas. Parasitemia and parasite stages were checked by microscopy of blood smears fixed in Methanol (Merck), stained in Giemsa (Sigma-Aldrich) in 1× Tris-Base, Acetic Acid, EDTA (TAE) buffer (analytical grade, Fischer US).
Synchronization of ring stage parasites (0-20 hour IDC) was done by incubating packed RBC culture with 5% (w/v) D-Sorbitol (Sigma-Aldrich) at 37° C. for 20 minutes. Cultures were washed with incomplete RPMI (iRPMI), 2,200 rpm, 3 minutes, brake 1 to remove sorbitol and cell debris. Late stage parasites (30-48 hour IDC) were isolated using a 68% Percoll (MP Biomedicals) gradient prepared with 1× Phosphate Buffer Saline (PBS) and iRPMI. Packed parasite cultures were diluted with iRPMI 1:5, then layer carefully atop of the 68% Percoll gradient in a 15 mL Falcon tube. Tubes were spun at 2,200 rpm for 20 minutes, brake 0. […]
In a mid-throughput compound library screen, compounds were screened for antiparasitic activity by growth rate over a duration of 60 hrs (slightly over one IDC). ˜1% parasitemia of 0-3hpi ring stage culture in 2% haematocrit were treated with 10 μM of library compound (0.1% final DMSO concentration), and seeded into 96well flat bottom plates. […] After 60 hr of treatment (to allow ring stages to develop a more defined morphology), taken for Fluorescent-activated Cell Sorting (FACS) read out.
Assay read out was done by staining with Hoechst 33342 (Excitation 350 nm, Emission 461 nm; Molecular Probes, Life Technologies), a cell permeable DNA staining dye. […] Cells were read via a High Throughput Sampler (HTS)-coupled FACS machine (BD Biosciences) in the UV laser excitation channel (Excitation 355 nm). […]

P. berghei [1] = assay: in vivo four-day suppression test; set-up: species or system Balb/c mice; settings: for dose required to achieve >95% killing: once daily Days 1 to 4, parasitemia measured on Day 5
Experimental: Four-week-old Balb/c mice were challenged with […] P. berghei parasites intravenously on Day 0. […] Parasitemia was measured on Day 5, and the following formula was used to measure in vivo activity;

[2] = molecular target: T1, Falcilysin (FLN, PlasmoDB geneID: PF3D7_1360800) (Plasmodium falciparum, UniProt Q76NL8); assay: cell-free enzymatic inhibition assay with recombinant FLN and fluorescent-quencher peptide substrate; assay type: biochemical; settings: 1 mM, fluorescence at 490 nm over 7 min
T1 construct: gift from Zbynek Bozdech, School of Biological Sciences, NTU
T1 sequence (Q76NL8 whole entry): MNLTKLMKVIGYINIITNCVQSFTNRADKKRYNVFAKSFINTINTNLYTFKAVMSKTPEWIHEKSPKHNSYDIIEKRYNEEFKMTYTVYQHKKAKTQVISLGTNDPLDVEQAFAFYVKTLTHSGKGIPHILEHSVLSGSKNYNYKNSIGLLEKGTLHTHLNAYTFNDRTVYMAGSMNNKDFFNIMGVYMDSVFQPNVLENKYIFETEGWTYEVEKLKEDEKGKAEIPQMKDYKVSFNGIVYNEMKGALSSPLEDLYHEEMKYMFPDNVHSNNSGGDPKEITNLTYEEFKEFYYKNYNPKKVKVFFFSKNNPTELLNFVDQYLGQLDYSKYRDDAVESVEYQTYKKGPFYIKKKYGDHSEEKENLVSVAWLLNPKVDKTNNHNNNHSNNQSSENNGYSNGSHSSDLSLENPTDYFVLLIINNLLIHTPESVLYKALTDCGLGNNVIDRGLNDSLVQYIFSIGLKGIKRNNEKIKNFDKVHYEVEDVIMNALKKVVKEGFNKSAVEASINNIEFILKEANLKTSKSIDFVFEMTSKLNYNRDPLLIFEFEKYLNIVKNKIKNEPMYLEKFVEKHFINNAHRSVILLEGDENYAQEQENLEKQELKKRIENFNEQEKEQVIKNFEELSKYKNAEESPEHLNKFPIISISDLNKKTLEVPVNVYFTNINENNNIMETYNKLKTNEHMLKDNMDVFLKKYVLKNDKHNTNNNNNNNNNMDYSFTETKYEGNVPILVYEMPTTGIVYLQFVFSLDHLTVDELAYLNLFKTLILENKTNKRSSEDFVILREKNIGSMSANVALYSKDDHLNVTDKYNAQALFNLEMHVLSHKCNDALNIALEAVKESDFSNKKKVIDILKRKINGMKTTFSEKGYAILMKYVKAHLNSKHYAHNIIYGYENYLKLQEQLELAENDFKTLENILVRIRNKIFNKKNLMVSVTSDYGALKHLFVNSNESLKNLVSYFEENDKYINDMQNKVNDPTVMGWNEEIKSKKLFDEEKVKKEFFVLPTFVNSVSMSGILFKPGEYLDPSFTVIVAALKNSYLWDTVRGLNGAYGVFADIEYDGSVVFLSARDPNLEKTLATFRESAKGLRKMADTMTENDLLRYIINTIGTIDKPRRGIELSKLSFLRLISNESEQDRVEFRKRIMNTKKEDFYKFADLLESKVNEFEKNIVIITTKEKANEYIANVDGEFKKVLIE
Experimental: In order to validate the results obtained from the CETSA screen, a cell-free enzymatic inhibition assay using recombinant-FLN and a fluorescent-quencher tagged 10-peptide substrate of FLN was employed. Recombinant FLN and the Dabcyl-[…] (SEQ ID NO:3)-Edans fluorescent-quencher peptides were a gift from Zbynek Bozdech of School of Biological Sciences, NTU. Briefly, recombinant FLN at a final concentration of 0.3 μg/ml in assay buffer (50 mM Bis-tris, pH 7.2) was prepared. […] Just prior to the read out, recombinant FLN in assay buffer was added. VO was determined by monitoring fluorescence (Aex=340 nm, Aem=490) over 7 min on a Tecan Infinite M200 Pro plate reader. Assays were done with two technical replicates each. Data of three biological replicates were averaged and plot on Microsoft excel to compare the slope of the fluorescence signal.

P. berghei [3] = assay: in vivo growth suppression test in P. berghei BALB/c mice model; settings: 30 mg/kg intraperitoneally once daily for four days
Experimental: In a next step, the compound's in vitro activity was validated in vivo in a P. berghei BALB/c mice model. A growth suppression test was done by intraperitoneally infecting 4-week old Balb/c mice with GFP-expressing parasites, and allowing the parasitemia to rise to 3-4%. Subsequently, different doses of the compound were administered intraperitoneally once daily over four days.
Tail snips were done once daily to obtain blood samples for the measurement of parasitemia by FACS.

[4] = system: lung, kidney, and liver epithelial cells; assay: toxicity in epithelial cells; assay type: cell-based; settings: at 1000-folds in excess of the therapeutic dose

1-({6-[(4,5-Diphenyl-1-imidazolinyl)methyl]-2-pyridyl}methyl)-4,5-diphenylimidazoline [SAR 14]
in vitro potency compared with A1 (P. falciparum): more potent | dose required to achieve >95% killing (P. berghei [1]): 30 mg/kg

C1=N[C@@H](c2ccccc2)[C@H](c2ccccc2)N1Cc1cccc(CN2C=N[C@@H](c3ccccc3)[C@@H]2c2ccccc2)c1 [imidazole variant, (4S,5S)-1-[(m-{[(4S,5S)-4,5-Diphenyl-1-imidazolyl]methyl}phenyl)methyl]-4,5-diphenylimidazole]
IC50 (P. falciparum): 4.69 µM

1-({3-[(4,5-Diphenyl-1-imidazolinyl)methyl]-5-methoxyphenyl}methyl)-4,5-diphenylimidazoline [SAR 13]
in vitro potency compared with A1 (P. falciparum): more potent | in vivo activity in 4-day suppressive test (P. berghei [1]; 20 mg/kg): highest activity | dose required to achieve >95% killing (P. berghei [1]): 20 mg/kg

C[C@@H]1C[C@@H]([C@H](O)CC2CC(=O)NC(=O)C2)C(=O)[C@@H](C)C1 [cyclohexamine]
proteolytic activity of FLN [2]: No inhibition of proteolytic activity

C[C@@H]1CC[C@H]2[C@@H](C)C(=O)O[C@@H]3O[C@@]4(C)CC[C@@H]1[C@]32OO4 [artemisinin]
reduction of parasitemia (P. berghei [3]): unable to further reduce parasitemia beyond day 3

C1=NC(c2ccccc2)C(c2ccccc2)N1Cc1cccc(CN2C=NC(c3ccccc3)C2c2ccccc2)c1 (centres unmarked) [A1, 1-({m-[(4,5-Diphenyl-1-imidazolinyl)methyl]phenyl}methyl)-4,5-diphenylimidazoline]
IC50 (P. falciparum; Plasmodium falciparum): 0.12 µM | dose required to achieve >95% killing (P. berghei [1]): 30 mg/kg | toxicity [4]: Toxicity was not observed
